Results taken from PubChem BioAssay (NCI).
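At the GI50, growth is halved. TGI denotes the concentration required for complete inhibition of growth.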

Legend:
Assay in all cases: growth of human tumour cells (NCI), 384-well format
[1] = tested on: HS 578T breast
[2] = tested on: SF-539 CNS
[3] = tested on: SK-MEL-2 melanoma
[4] = tested on: RPMI-8226 leukemia
[5] = tested on: BT-549 breast
[6] = tested on: SF-268 CNS
[7] = tested on: KM12 colon
[8] = tested on: PC-3 prostate
[9] = tested on: MDA-MB-468 breast
[10] = tested on: NCI/ADR-RES ovarian
[11] = tested on: HOP-92 NSCLC
[12] = tested on: OVCAR-3 ovarian
[13] = tested on: UO-31 renal
[14] = tested on: IGROV1 ovarian
[15] = tested on: U251 glioblastoma
[16] = tested on: SN12C renal
[17] = tested on: NCI-H23 lung
[18] = tested on: HCC-2998 colon
[19] = tested on: UACC-257 melanoma
[20] = tested on: ACHN renal
[21] = tested on: HOP-62 NSCLC
[22] = tested on: CCRF-CEM leukemia
[23] = tested on: OVCAR-8 ovarian
[24] = tested on: T-47D breast
[25] = tested on: OVCAR-5 ovarian
[26] = tested on: SF-295 CNS
[27] = tested on: SK-OV-3 ovarian
[28] = tested on: NCI-H460 NSCLC
[29] = tested on: MDA-MB-435 melanoma
[30] = tested on: SK-MEL-28 melanoma
[31] = tested on: SW-620 colon
[32] = tested on: MOLT-4 leukemia
[33] = tested on: MALME-3M melanoma
[34] = tested on: HCT-15 colon
[35] = tested on: COLO 205 colon
[36] = tested on: HT29 colon
[37] = tested on: A498 renal
[38] = tested on: TK-10 renal
[39] = tested on: NCI-H226 lung
[40] = tested on: SNB-19 CNS
[41] = tested on: SNB-75 CNS
[42] = tested on: M14 melanoma
[43] = tested on: OVCAR-4 ovarian
[44] = tested on: MDA-MB-231 breast
[45] = tested on: EKVX NSCLC
[46] = tested on: NCI-H522 lung
[47] = tested on: LOX IMVI melanoma
[48] = tested on: DU-145 prostate
[49] = tested on: MCF7 breast
[50] = tested on: UACC-62 melanoma
[51] = tested on: HL-60(TB) leukemia
[52] = tested on: NCI-H322M lung
[53] = tested on: A549 NSCLC
[54] = tested on: HCT-116 colon
[55] = tested on: SR leukemia
[56] = tested on: SK-MEL-5 melanoma
[57] = tested on: CAKI-1 renal
[58] = tested on: RXF 393 renal
[59] = tested on: 786-0 renal

`O=C(Nc1ccc(OC(F)(F)Cl)cc1)c1cnc(N2CC[C@@H](O)C2)c(-c2ccn[nH]2)c1` was tested, and the GI50 [1] was 12.6 µM, the TGI [1] was 25.3 µM and the GI50 [2] was 10.1 µM. For the same molecule, the TGI [2] was 22.5 µM, the GI50 [3] was 15.4 µM and the TGI [3] was 28.8 µM. It also gave a GI50 [4] of 3.27 µM, a TGI [4] of 12.2 µM and a GI50 [5] of 14.8 µM. It also gave a TGI [5] of 28.2 µM, a GI50 [6] of 10.6 µM and a TGI [6] of 23.4 µM. For the same molecule, the GI50 [7] was 4.57 µM, the TGI [7] was 15.4 µM and the GI50 [8] was 13.6 µM. For the same molecule, the TGI [8] was 26.8 µM, the GI50 [9] was 3.89 µM and the TGI [9] was 15 µM. The GI50 [10] was 19.3 µM, the TGI [10] was 41.9 µM and the GI50 [11] was 13.7 µM. For the same molecule, the TGI [11] was 26.8 µM, the GI50 [12] was 11.1 µM and the TGI [12] was 23.3 µM. The GI50 [13] was 11.6 µM, the TGI [13] was 24.2 µM and the GI50 [14] was 10.9 µM. For the same molecule, the TGI [14] was 23.6 µM, the GI50 [15] was 7.26 µM and the TGI [15] was 20 µM. For the same molecule, the GI50 [16] was 13.7 µM, the TGI [16] was 26.8 µM and the GI50 [17] was 12.3 µM. It also gave a TGI [17] of 25.9 µM, a GI50 [18] of 2.85 µM and a TGI [18] of 8.48 µM. For the same molecule, the GI50 [19] was 9.12 µM, the TGI [19] was 22.5 µM and the GI50 [20] was 12.1 µM. The TGI [20] was 29.4 µM, the GI50 [21] was 9.4 µM and the TGI [21] was 22.7 µM. It also gave a GI50 [22] of 3.01 µM, a TGI [22] of 10.6 µM and a GI50 [23] of 6.65 µM. For the same molecule, the TGI [23] was 19.5 µM, the GI50 [24] was 2.97 µM and the TGI [24] was 10.7 µM. The GI50 [25] was 12.1 µM, the TGI [25] was 25.7 µM and the GI50 [26] was 11.1 µM. For the same molecule, the TGI [26] was 23.2 µM, the GI50 [27] was 16 µM and the TGI [27] was 30.7 µM. For the same molecule, the GI50 [28] was 3.95 µM, the TGI [28] was 13.3 µM and the GI50 [29] was 12 µM. It also gave a TGI [29] of 24.8 µM, a GI50 [30] of 15 µM and a TGI [30] of 28.5 µM. It also gave a GI50 [31] of 7.75 µM, a TGI [31] of 19.7 µM and a GI50 [32] of 5.82 µM. It also gave a TGI [32] of 18.3 µM, a GI50 [33] of 6.97 µM and a TGI [33] of 20.5 µM. It also gave a GI50 [34] of 2.94 µM, a TGI [34] of 10.9 µM and a GI50 [35] of 5.01 µM. It also gave a TGI [35] of 16.6 µM, a GI50 [36] of 2.57 µM and a TGI [36] of 6.27 µM. The GI50 [37] was 13.6 µM, the TGI [37] was 26.8 µM and the GI50 [38] was 10.8 µM. It also gave a TGI [38] of 26.4 µM, a GI50 [39] of 4.76 µM and a TGI [39] of 17 µM. For the same molecule, the GI50 [40] was 14.5 µM, the TGI [40] was 27.9 µM and the GI50 [41] was 7.86 µM. It also gave a TGI [41] of 20.9 µM, a GI50 [42] of 10.5 µM and a TGI [42] of 22.9 µM. It also gave a GI50 [43] of 6.92 µM, a TGI [43] of 26.9 µM and a GI50 [44] of 10.4 µM. The TGI [44] was 22.5 µM, the GI50 [45] was 14 µM and the TGI [45] was 28.8 µM. The GI50 [46] was 11.7 µM, the TGI [46] was 24.3 µM and the GI50 [47] was 7.26 µM. The TGI [47] was 20.2 µM, the GI50 [48] was 17.7 µM and the TGI [48] was 32.8 µM. For the same molecule, the GI50 [49] was 9.56 µM, the TGI [49] was 21.9 µM and the GI50 [50] was 11.6 µM. It also gave a TGI [50] of 23.9 µM, a GI50 [51] of 2.77 µM and a TGI [51] of 6.75 µM. For the same molecule, the GI50 [52] was 12.3 µM, the TGI [52] was 25.1 µM and the GI50 [53] was 13.3 µM. For the same molecule, the TGI [53] was 29.7 µM, the GI50 [54] was 10.9 µM and the TGI [54] was 23.7 µM. The GI50 [55] was 1.94 µM, the TGI [55] was 4.74 µM and the GI50 [56] was 4.81 µM. The TGI [56] was 17.2 µM, the GI50 [57] was 8.07 µM and the TGI [57] was 21.1 µM. The GI50 [58] was 3.84 µM, the TGI [58] was 14.1 µM and the GI50 [59] was 5.38 µM. For the same molecule, the TGI [59] was 17.2 µM.
